According to publication PMC9452909, “Monomethylsulochrin isolated from biomass extract of Aspergillus sp. against Leishmania amazonensis: In vitro biological evaluation and molecular docking” (Frontiers in Cellular and Infection Microbiology, 2022):
In brackets after ≈: the same amount, converted by molar mass. Where two headings read alike, the source gives them in different places.

Columns and labels:
[1] = test system: L. amazonensis promastigote; experiment: Antileishmanial activity assay, promastigote forms (live parasite counting); assay type: cell-based, Leishmania amazonensis; details: 24 h; for IC50: Leishmania amazonensis, mean ± SD
Method: Promastigote forms of L. amazonensis H21 (MHOM/BR/76/MA-76) were cultured at 26°C in Schneider’s insect medium. The culture was supplemented with 10% FBS, 100 IU/ml of penicillin, and 100 µg/ml of streptomycin in a maximum of 10 in vitro passages ([Almeida-Souza et al., 2016]).
In 96-well plates, the promastigote forms of L. amazonensis (10^6 parasites/ml) from a 3- to 5-day-old culture were incubated for 24 h in the presence of different concentrations of pseurotin A at 7.24–579.5 μM and monomethylsulochrin at 9.0–721.9 μM, in a final volume of 100 µL per well. The viability of parasites was evaluated after treatment by counting the total number of live promastigotes, considering the flagellar motility, using Neubauer’s camera and optical light microscope ([Rottini et al., 2019]). This count was compared with the score of non-treated promastigote growth. This experiment was carried out in independent triplicate with each condition performed in triplicate. The results were expressed as parasite growth inhibitory concentration of 50% (IC50). Wells with medium and without parasites were used as blanks, and wells with parasites only incubated with medium were used as controls. […] Activity against intracellular amastigote was performed in 24-well plates, with coverslips, with peritoneal macrophages cultured (5 × 10^5 cells per well) and infected with promastigote forms of L. amazonensis using a ratio of 10:1 parasites per cell. After 6 h, the cells were washed three times with PBS to remove free parasites. […] For the light microscopy analysis, the coverslips with the infected and treated cells were then fixed with Bouin solution and stained with Giemsa. The IC50 values of all compounds tested were calculated from the total of intracellular amastigote from 100 cells. Parameters of infection analysis were performed according to [Silva-Silva et al. (2021a)].

[2] = test system: L. donovani amastigotes, axenically cultured (cell free); parameters: method as in Martińez-Luis et al. (2012); details: isolated from endophytic Aspergillus sp. strain F1544; ref Martińez-Luis et al. (2012); cited from earlier work
Cytotoxicity assay (MTT) = assay type: cell-based; details: mouse
Method: The animals were stimulated by intraperitoneal inoculation of 3.0 ml of sodium thioglycolate at 3.0%. After 72 h of elicitation, the animals were euthanized with 10% ketamine (Syntec, São Paulo, BRA) and 2% xylazine (Syntec, São Paulo, BRA) according to the weight of each animal and, after death, the animal’s skin was retracted by incision and subsequent divulsion for peritoneum exposure. A total of 10.0 ml of sterile pH 7.2 phosphate-buffered saline (PBS) was inoculated, and a light manual massage was performed. The cells were then harvested from the peritoneum and dispensed in a sterile conical tube. The peritoneal lavage was centrifuged at 380g for 5 min, and cells were suspended in culture medium (RPMI 1640 medium supplemented with 10% FBS, penicillin [100 U/ml], and [100 μg/ml] streptomycin) and incubated at 37°C, 5% CO2 overnight ([Almeida-Souza et al., 2018]).
Wells without cells were used as blank, and wells with cells and 1% DMSO were used as control. After 24-h incubation period, cell viability was assessed by MTT. The cytotoxicity of 50% (CC50) was calculated following the method described elsewhere by [Oliveira et al. (2018)]. The selectivity index (SI) was obtained from the ratio of peritoneal macrophages CC50 and IC50.

[3] = test system: L. amazonensis intracellular amastigote; experiment: Activity against intracellular amastigote in infected peritoneal macrophages; assay type: cell-based, Leishmania amazonensis; details: 24 h; for IC50: Leishmania amazonensis, Peritoneal macrophage, in Mus musculus, read-out: L. amazonensis Intracellular amastigote IC50
Method: The viability of parasites was evaluated after treatment by counting the total number of live promastigotes, considering the flagellar motility, using Neubauer’s camera and optical light microscope ([Rottini et al., 2019]). This count was compared with the score of non-treated promastigote growth. This experiment was carried out in independent triplicate with each condition performed in triplicate. […] Wells with medium and without parasites were used as blanks, and wells with parasites only incubated with medium were used as controls. […] After 6 h, the cells were washed three times with PBS to remove free parasites. […] For the light microscopy analysis, the coverslips with the infected and treated cells were then fixed with Bouin solution and stained with Giemsa. […] Parameters of infection analysis were performed according to [Silva-Silva et al. (2021a)].

Leishmania = test system: Leishmania; parameters: method as in Campos et al., 2017; details: ref Campos et al., 2017, cited from earlier work
[4] = test system: L. amazonensis promastigote forms; experiment: Flow cytometry with TMRE, mitochondrial membrane potential; assay type: cell-based, Leishmania amazonensis; details: 24 h, p = 0.0286
Method: Heat-killed parasites (60°C bath for 60 min) and untreated parasites were used as positive and negative controls, respectively. After incubation, parasites were centrifuged at 210g for 5 min at room temperature, washed in PBS, incubated with 300 μl of TMRE (50 nM) in the dark for 15 min, at room temperature, and submitted to flow cytometry through CytoFlex flow cytometer (Beckman Coulter Life Sciences, IN, USA). TMRE was excited by 488-nm blue laser, and its fluorescence was collected at 585/42 nm bandpass filter. CytExpert software version 2.1 (Beckman Coulter Life Sciences, IN, USA) was used for flow cytometry analyses ([Mondêgo-Oliveira et al., 2021]).

[5] = test system: L. amazonensis promastigote forms; experiment: Transmission electron microscopy, ultrastructural alterations; assay type: cell-based, Leishmania amazonensis; details: 18.04 µM (IC50), 24 h; p = 0.0016, 0.0016, 0.0480, 0.0079
Method: The transmission electron microscopy was performed to evaluate if monomethylsulochrin induced any ultrastructural alterations to the L. amazonensis promastigote forms. Parasites were treated with monomethylsulochrin with IC50 for 24 h and fixed with 2.5% glutaraldehyde in sodium cacodylate buff;er (0.1 M, pH 7.2) for overnight, then washed three times with 0.1 M sodium cacodylate buffer and postfixed in a solution containing 1% osmium tetroxide, 0.8% ferrocyanide, and 5 mM calcium chloride. 0.1 M sodium cacodylate buffer was used for washing, before being dehydrated in graded acetone and embedded in EPON 812 resin. Ultrathin sections were stained with 5% uranyl acetate aqueous solution and lead citrate (1.33% lead nitrate and 1.76% sodium citrate) and examined in a JEM-1011 transmission electron microscope (JEOL, Tokyo, Japan) at 80 kV ([Silva-Silva et al., 2021b]). The images acquired were used for quantification of the number of vacuoles and lipid corpuscles and area of vacuoles, lipid corpuscles, and mitochondria, using ImageJ software (NIH). Quantitative analysis was conducted with five untreated parasites and at least 10 treated parasites. The number of vacuoles and lipid corpuscles was expressed as mean ± standard deviation (SD), and the area of vacuoles, lipid corpuscles, and mitochondria were expressed as percentage of each parasite total area.

bacteria = test system: bacteria; parameters: method as in Zhang et al., 2014; details: ref Zhang et al., 2014; cited from earlier work
fungi = test system: fungi; parameters: method as in Zhang et al., 2014; details: ref Zhang et al., 2014; cited from earlier work
[6] = test system: L. infantum intracellular amastigote forms; parameters: method as in Hay et al. (2008); details: ref Hay et al. (2008); cited from earlier work
[7] = test system: L. mexicana promastigote forms; parameters: method as in Hay et al. (2008); details: ref Hay et al. (2008); cited from earlier work
[8] = test system: L. infantum promastigote forms; parameters: method as in Hay et al. (2008); details: ref Hay et al. (2008); cited from earlier work
[9] = peritoneal macrophages (thioglycolate-elicited), BALB/c peritoneal macrophages, 24 h, MTT, mean ± SD, read-out: Cytotoxicity CC50

CC/C=C\[C@H](O)[C@H](O)C1=C(C)C(=O)[C@]2(O1)C(=O)N[C@@](OC)(C(=O)c1ccccc1)[C@@H]2O [Pseurotin A, pseurotin A]
IC50 [1]: > 500 µM | IC50 against axenically cultured (cell free) L. donovani amastigotes [2]: 5.8 mg/L (≈ 13.4 µM) | CC50 at 24 h (Cytotoxicity assay (MTT); [9]): 654.4 ± 1.19 µM

C[C@@H]1[C@H](O)[C@@H](C)/C=C/C=C/C=C/C=C/C=C/C=C/C=C/[C@H](O[C@@H]2O[C@H](C)[C@@H](O)[C@H](N)[C@@H]2O)C[C@@H]2O[C@](O)(C[C@@H](O)C[C@@H](O)[C@H](O)CC[C@@H](O)C[C@@H](O)CC(=O)O[C@H]1C)C[C@H](O)[C@H]2C(=O)O [Amphotericin B, amphotericin B, reference compound]
SIpro (selectivity index = CC50 macrophages/IC50 promastigote forms) [1]: 312.96 | CC50 at 24 h (Cytotoxicity assay (MTT); BALB/c): 8.45 ± 1.08 µM | Infection parameters (all) ([3]; 3 µM): significant reduction | SIama (selectivity index = CC50 macrophages/IC50 amastigote forms) [3]: 13.43 | IC50 [3]: 0.629 ± 1.39 µM

anhydrocochlioquinone A [anhydrocochlioquinone A (ANDC-A)]
Leishmanicidal activity EC50 (Leishmania): 22.4 mg/L | EC50 (Leishmania; read-out: Leishmanicidal activity EC50): 44 µM

COC(=O)c1cc(O)cc(OC)c1C(=O)c1c(O)cc(C)cc1OC [Monomethylsulochrin, monomethylsulochrin]
Change in Δψm ([4]; 18.04 µM): significant decrease | Decrease in the mitochondrial membrane potential ([4]; IC50 concentration): 25.9% | SIpro (selectivity index = CC50 macrophages/IC50 promastigote forms) [1]: 5.08 | IC50 [1]: 18 ± 1.11 µM | CC50 at 24 h (Cytotoxicity assay (MTT); [9]): 91.6 ± 1.28 µM | Ultrastructural changes: number of vacuoles, vacuoles area, lipid corpuscles area, mitochondria area [5]: statistically significant changes | Antibacterial activity (bacteria): weak antibacterial activity | Parameters of infection (amastigote number in 100 cells, percentage of infected cells, mean of amastigotes per infected cell) ([3]; 6 µM, p = 0.0082, 0.0033, 0.0041): statistically significant reduction | SIama (selectivity index = CC50 macrophages/IC50 amastigote forms) [3]: 18.00 | IC50 ([3]; infected BALB/c peritoneal macrophages, mean ± SD): 5.09 ± 1.06 µM | Antifungal activity (fungi): no antifungal activity

CC(C)=CCC/C(C)=C/Cc1c(O)cc(O)c(C(=O)c2ccccc2)c1O [3-geranyl-2,4,6-trihydroxybenzophenone]
IC50 against intracellular amastigote forms of L. infantum [6]: 0.7 mg/L | IC50 against promastigote forms of L. mexicana [7]: 4.05 mg/L | IC50 against promastigote forms of L. infantum [8]: 15 mg/L
